From US20160129005A1, “ADENINE DERIVATIVES HAVING IMMUNOMODULATING ANTI-INFLAMMATORY AND ANALGESIC ACTIVITY” (MEDESTEA RESEARCH & PRODUCTION S.p.A., priority 2011, published 2016)

Assays:
U937 cells = test: Production of VEGF in supernatant of U937 culture; type: cell-based, human; details: FIG. 2
Experimental: The inhibitory action of […] on the production of VEGF in the supernatant of U937 in culture was also evaluated.

[1] = system: diabetic C57BL/6 mice transplanted with BALB/c islets; test: Survival of allogenic pancreatic islets in murine transplant model; type: in vivo, mouse; details: 9 mg/kg or 30 mg/kg i.p. daily; FIG. 24
Experimental: C57BL/6 mice were made diabetic by administration of streptozotocin (170 mg/kg) and, following transplant of allogenic pancreatic islets, were treated with […].
The pancreatic islets, isolated from the BALB/c mouse, were inoculated in the diabetic mouse according to the procedure described by Abde R et al. (Diabetes 51 (8): 2489-2495). The glycaemia values were measured daily for monitoring the functionality of the transplanted cells.
The significance of rejection of transplanted cells that occurred was attributed to glycaemia values above 250 mg/dl, obtained in two consecutive measurements. After the cells were implanted (day 0), the mice were treated with intraperitoneal injections of 9 mg/kg or 30 mg/kg of […] daily.
The combination of […] and Rapamycin, currently the most used of the immunosuppressive drugs, was tested on the same animal model.
Both drugs were administered 6 times (day 0, day 2, day 4, day 6, day 8, day 10); […] was administered at 2 doses.

female NOD mice = test: Type 1 diabetes spontaneous model; type: in vivo, mouse; details: 0.25 mg intravenously 5 days every two weeks from 11 weeks of age; at the 28th week; carriers 7 out of 14
Text: NOD (“non-obese diabetic”) mice represent the spontaneous murine model of type 1 diabetes (Adorini et al., 2002). The loss of metabolic control characterized by hyperglycaemia and glycosuria, which defines the disease clinically, is preceded by a long phase called pre-diabetes, during which the response to specific autoantigens of the beta cells of the pancreas develops subclinically, but progressively. In the NOD mice, the disease begins clinically around the 14th week of age when the infiltrating inflammatory cells invade the islets and develop an aggressive insulitis, which leads to destruction of the beta cells and causes hyperglycaemia (Anderson and Bluestone, 2005). The autoreactive CD4+ and CD8+ T cells play a fundamental role in the pathogenesis of type 1 diabetes.
We treated female NOD mice at 11 weeks of age with 0.25 mg […] or carriers intravenously for 5 days every two weeks and monitored glycaemia every week. Only one out of 8 mice treated with […] developed diabetes at the 28th week of age, whereas 7 out of 14 mice treated with carriers developed diabetes or died starting from the 14th week of age (FIG. 32).

mdx mice = test: Muscular dystrophy model; type: in vivo, mouse
Text: The mdx mouse is characterized by a nonsense mutation in the dystrophin gene and constitutes an experimental model of DMD. The muscle of mdx is histologically normal in early postnatal development, but goes towards necrosis starting from the third week of life. The mdx mice show high levels of creatine kinase (CK) in the serum and accumulation of inflammatory cells, both markers of muscular degeneration. To assess the effect of […] in the progression of dystrophy and of inflammation in DMD, we treated mdx mice (n=10) at 4 weeks of age (in accordance with the recent SOPs for preclinical drug trials in mdx) with […] (0.25 mg/mouse) intraperitoneally every day for two weeks. The same number of mice of the same age was treated with the vehicle as control. After two weeks of treatment with […], the CK levels had decreased by 70% (P<0.05) (FIG. 33).
Cross sections of anterior tibial muscles stained with haematoxylin/eosin were quantified in duplicate in blind conditions with ImageJ software. In the same sections we also assessed centralization of the nucleus, degeneration of muscle fibres and their regeneration. […] The values obtained for the mice treated with […] were similar to those obtained for the control mice of the same age and genotype but without mutation in the dystrophin gene.
To assess the effect of […] on the inflammatory infiltrate in the muscle of mdx mice, the muscle sections were decorated with anti-CD3 antibodies (T cells). This analysis detected a 40% decrease in the number of cells positive for CD3.

C57BL/6 WT mice = test: Allergic contact dermatitis (TNCB sensitization, ear thickness); type: in vivo, mouse; details: 2 mg/kg injected locally in the auricle 4 hours before stimulus; FIG. 36
Experimental: C57BL/6 WT mice are sensitized by applying, on day 0, 100 μl of 3% TNCB (2,4,6-trinitrochlorobenzene) in acetone, or only acetone as control, on the skin of the abdomen.
As stress, 20 μl of 1% TNCB is applied on the skin of the back of both ears on day 5. This stress causes an allergic reaction that is manifested as swelling and reddening. The thickness of the ear (symptom of swelling) is measured 24 hours after application of the stimulus, using callipers (Mitutoyo). […] was injected locally in the auricle at a dose of 2 mg/kg 4 hours before the […] stimulus.

NOD/scid mice = test: Graft-versus-host disease (human PBMCs); type: in vivo, mouse
Experimental: Two groups of NOD/scid mice of 8-10 weeks were used, and were kept in cages under sterile flow at an SPF animal facility.
On day −1, to avoid residual activity of natural killer cells, the mice were administered an anti-NK antibody intraperitoneally (TMβ-1.1 mg/mouse). On day 0 the mice were irradiated (300 rad) and they were administered, intraperitoneally, 20×10^6 human peripheral blood mononuclear cells (PBMCs), previously isolated. The PBMCs are isolated by means of buffy coat from blood from healthy donors.
On the same day, the mice were treated with […] intraperitoneally at two doses, 10 mg/kg and 20 mg/kg. The treatment was repeated daily for 15 days.
The mice were checked regularly 3 times a week to monitor the weight loss (also as independent variable) and signs of GvHD using a clinical score (0 for weight loss <10%, 1 for 10%-20%, 2 for 20%; hunching (0-2), reactivity (0-2), appearance of the fur (0-2), and skin integrity (0-2)), with a maximum score of 10.

C57/Bl/6 mice = test: COPD: acute cigarette smoke exposure, BALF; type: in vivo, mouse; details: 6 mg/kg intratracheal; FIG. 39
Experimental: C57/Bl/6 mice aged 6-8 weeks were exposed to room air or to the smoke of 5 cigarettes/day (Virginia brand with filter; tar 12 mg and nicotine 0.9 mg) for 3 consecutive days. For exposure to smoke, a special cage was used, which permits air exchange with the exterior or with the device that contains the cigarette only due to a mechanical fan, which also allows the smoke to be diluted with the external air (1:8) in order to simulate the situation of a smoker.
Starting on the fourth day, the mice were anaesthetized 30 minutes before exposure to the smoke and were administered 6 mg/kg of […] or vehicle by intratracheal injection. The mice were sacrificed one hour after the end of the treatment and a bronchoalveolar lavage was carried out.

[2] = quantitative PCR, vs vehicle, FIG. 35

C=C(C=O)OC(C=O)n1cnc2c(N)ncnc21 (centres unmarked) [2-[1-(6-aminopurin-9-yl)-2-oxoethoxy]prop-2-enal]
cellular production of VEGF (U937 cells): reduced the cellular production of VEGF significantly | rejection of transplanted islets (glycaemia above 250 mg/dl twice) [1]: no rejection up to day 100 | mice that developed diabetes (female NOD mice): one out of 8 | decrease of creatine kinase (CK) levels (mdx mice; 0.25 mg/mouse i.p. daily for two weeks, P<0.05, FIG. 33): 70% | centralization of the nucleus (mdx mice; anterior tibial muscles): significant reductions | number of degenerative fibres (mdx mice; anterior tibial muscles): significant reductions | area of the muscle cross sections (CSA) (mdx mice; anterior tibial muscles, vs carrier, FIG. 34): significant increase in area of the muscle cross sections | decrease in the number of cells positive for CD3 in muscle (mdx mice; anti-CD3 stained muscle sections): 40% | I1-1β (mdx mice; [2]): significant reduction | levels of mRNA typical of the Treg cells (mdx mice; [2]): significant increase | allergic reaction (thickness of the ear) (C57BL/6 WT mice): able to inhibit the allergic reaction | resistance to GvHD (clinical score) (NOD/scid mice; 10 mg/kg and 20 mg/kg i.p. daily for 15 days, FIG. 37): statistically significant, dose-dependent resistance to GvHD | survival (NOD/scid mice; 10 and 20 mg/kg i.p., untreated all die within 50 days): reaching three months from transplant | immune cells and messengers of inflammation in BALF (C57/Bl/6 mice): slight finding of immune cells and of messengers of inflammation
